Measured values from ChEMBL document CHEMBL1156118, “Evaluation of substituted 6-arylquinazolin-4-amines as potent and selective inhibitors of cdc2-like kinases (Clk)” (Bioorg Med Chem Lett, 2009).

Experiments:
[1] = molecular target: T1, Dual specificity protein kinase CLK4 (Homo sapiens, UniProt Q9HAZ1); assay: Inhibition of Clk4
[2] = molecular target: Epidermal growth factor receptor (Homo sapiens, UniProt P00533); assay: Binding affinity to EGFR assessed as dissociation constant
[3] = molecular target: Dual specificity protein kinase CLK1 (Homo sapiens, UniProt P49759); assay: Binding affinity to Clk1 assessed as dissociation constant
Chain of Dual specificity protein kinase CLK1 (P49759 whole entry): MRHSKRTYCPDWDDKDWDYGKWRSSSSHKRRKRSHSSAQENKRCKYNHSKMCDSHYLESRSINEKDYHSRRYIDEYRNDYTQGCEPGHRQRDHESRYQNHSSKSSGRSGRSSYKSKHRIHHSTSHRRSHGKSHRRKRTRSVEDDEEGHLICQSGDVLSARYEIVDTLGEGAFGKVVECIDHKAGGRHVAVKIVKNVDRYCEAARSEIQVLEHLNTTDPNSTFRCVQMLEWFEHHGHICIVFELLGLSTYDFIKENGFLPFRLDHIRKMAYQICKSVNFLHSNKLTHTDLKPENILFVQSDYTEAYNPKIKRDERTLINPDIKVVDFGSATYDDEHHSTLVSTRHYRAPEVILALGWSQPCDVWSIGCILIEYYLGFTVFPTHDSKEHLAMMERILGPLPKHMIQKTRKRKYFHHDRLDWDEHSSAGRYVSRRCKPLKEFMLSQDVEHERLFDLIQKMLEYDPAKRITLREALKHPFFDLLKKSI

[4] = molecular target: Dual specificity protein kinase CLK3 (Homo sapiens, UniProt P49761); assay: Binding affinity to Clk3 assessed as dissociation constant
Chain of Dual specificity protein kinase CLK3 (P49761 whole entry): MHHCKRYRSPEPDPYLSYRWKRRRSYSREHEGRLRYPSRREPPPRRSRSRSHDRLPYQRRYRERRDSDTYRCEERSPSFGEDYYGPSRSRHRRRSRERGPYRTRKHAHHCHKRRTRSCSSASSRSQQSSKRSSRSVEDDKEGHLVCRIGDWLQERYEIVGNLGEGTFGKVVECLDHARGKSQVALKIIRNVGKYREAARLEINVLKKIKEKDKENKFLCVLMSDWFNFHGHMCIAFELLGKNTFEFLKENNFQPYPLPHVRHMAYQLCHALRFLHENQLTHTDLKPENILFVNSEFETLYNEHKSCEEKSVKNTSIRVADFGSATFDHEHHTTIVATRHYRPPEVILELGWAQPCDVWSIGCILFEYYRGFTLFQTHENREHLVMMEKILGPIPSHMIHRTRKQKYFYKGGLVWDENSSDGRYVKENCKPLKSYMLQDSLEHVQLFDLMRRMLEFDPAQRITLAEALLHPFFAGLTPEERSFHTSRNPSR

[5] = molecular target: Dual specificity tyrosine-phosphorylation-regulated kinase 1B (Homo sapiens, UniProt Q9Y463); assay: Binding affinity to Dyrk1B assessed as dissociation constant
Chain of Dual specificity tyrosine-phosphorylation-regulated kinase 1B (Q9Y463 whole entry): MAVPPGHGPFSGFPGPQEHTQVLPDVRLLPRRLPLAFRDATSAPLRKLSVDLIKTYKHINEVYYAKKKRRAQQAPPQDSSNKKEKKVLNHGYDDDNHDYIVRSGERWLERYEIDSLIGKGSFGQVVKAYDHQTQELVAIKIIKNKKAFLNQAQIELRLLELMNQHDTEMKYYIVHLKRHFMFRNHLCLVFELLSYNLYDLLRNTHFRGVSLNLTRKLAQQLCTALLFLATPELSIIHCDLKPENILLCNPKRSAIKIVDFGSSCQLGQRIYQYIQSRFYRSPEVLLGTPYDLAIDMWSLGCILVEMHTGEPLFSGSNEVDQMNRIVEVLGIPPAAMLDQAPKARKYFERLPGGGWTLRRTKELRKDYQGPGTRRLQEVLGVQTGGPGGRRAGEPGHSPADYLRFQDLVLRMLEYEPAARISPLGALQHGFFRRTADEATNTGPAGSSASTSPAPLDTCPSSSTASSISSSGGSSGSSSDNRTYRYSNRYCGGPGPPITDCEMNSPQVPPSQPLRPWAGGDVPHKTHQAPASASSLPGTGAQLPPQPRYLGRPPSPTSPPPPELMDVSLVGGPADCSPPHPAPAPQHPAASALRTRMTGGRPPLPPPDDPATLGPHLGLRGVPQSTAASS

[6] = molecular target: Dual specificity protein kinase CLK2 (Homo sapiens, UniProt P49760); assay: Binding affinity to Clk2 assessed as dissociation constant
Chain of Dual specificity protein kinase CLK2 (P49760 whole entry): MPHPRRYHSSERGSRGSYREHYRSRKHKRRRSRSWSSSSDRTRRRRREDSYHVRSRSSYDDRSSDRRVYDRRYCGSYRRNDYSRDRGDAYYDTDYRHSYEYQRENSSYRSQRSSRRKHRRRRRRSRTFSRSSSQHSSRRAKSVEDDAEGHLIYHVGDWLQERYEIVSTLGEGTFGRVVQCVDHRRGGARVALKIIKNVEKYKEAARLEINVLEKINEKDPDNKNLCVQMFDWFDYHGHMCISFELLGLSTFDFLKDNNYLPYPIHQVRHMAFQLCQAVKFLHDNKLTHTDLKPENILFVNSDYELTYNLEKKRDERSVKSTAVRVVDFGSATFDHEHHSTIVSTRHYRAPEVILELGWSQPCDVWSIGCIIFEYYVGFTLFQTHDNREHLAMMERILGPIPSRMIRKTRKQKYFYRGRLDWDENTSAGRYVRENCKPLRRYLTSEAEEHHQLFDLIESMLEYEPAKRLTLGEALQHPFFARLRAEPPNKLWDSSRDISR

[7] = molecular target: Dual specificity tyrosine-phosphorylation-regulated kinase 1A (Homo sapiens, UniProt Q13627); assay: Binding affinity to Dyrk1A assessed as dissociation constant
[8] = molecular target: T1, Dual specificity protein kinase CLK4; assay: Binding affinity to Clk4 assessed as dissociation constant

T1 sequence (Q9HAZ1 whole entry): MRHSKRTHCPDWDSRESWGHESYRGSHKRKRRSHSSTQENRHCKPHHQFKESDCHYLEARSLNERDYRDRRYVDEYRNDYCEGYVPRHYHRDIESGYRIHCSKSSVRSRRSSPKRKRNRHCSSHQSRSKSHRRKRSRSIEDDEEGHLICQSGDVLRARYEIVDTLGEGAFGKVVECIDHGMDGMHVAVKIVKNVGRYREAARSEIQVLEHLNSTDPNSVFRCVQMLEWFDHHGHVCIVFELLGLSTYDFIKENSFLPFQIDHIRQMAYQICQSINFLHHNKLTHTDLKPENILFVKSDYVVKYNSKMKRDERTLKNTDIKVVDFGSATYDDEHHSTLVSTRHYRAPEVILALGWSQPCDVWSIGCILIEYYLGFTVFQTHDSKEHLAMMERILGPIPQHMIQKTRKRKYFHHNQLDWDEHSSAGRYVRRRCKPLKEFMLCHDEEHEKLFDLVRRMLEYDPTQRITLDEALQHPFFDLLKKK
Chain of Epidermal growth factor receptor (P00533 whole entry): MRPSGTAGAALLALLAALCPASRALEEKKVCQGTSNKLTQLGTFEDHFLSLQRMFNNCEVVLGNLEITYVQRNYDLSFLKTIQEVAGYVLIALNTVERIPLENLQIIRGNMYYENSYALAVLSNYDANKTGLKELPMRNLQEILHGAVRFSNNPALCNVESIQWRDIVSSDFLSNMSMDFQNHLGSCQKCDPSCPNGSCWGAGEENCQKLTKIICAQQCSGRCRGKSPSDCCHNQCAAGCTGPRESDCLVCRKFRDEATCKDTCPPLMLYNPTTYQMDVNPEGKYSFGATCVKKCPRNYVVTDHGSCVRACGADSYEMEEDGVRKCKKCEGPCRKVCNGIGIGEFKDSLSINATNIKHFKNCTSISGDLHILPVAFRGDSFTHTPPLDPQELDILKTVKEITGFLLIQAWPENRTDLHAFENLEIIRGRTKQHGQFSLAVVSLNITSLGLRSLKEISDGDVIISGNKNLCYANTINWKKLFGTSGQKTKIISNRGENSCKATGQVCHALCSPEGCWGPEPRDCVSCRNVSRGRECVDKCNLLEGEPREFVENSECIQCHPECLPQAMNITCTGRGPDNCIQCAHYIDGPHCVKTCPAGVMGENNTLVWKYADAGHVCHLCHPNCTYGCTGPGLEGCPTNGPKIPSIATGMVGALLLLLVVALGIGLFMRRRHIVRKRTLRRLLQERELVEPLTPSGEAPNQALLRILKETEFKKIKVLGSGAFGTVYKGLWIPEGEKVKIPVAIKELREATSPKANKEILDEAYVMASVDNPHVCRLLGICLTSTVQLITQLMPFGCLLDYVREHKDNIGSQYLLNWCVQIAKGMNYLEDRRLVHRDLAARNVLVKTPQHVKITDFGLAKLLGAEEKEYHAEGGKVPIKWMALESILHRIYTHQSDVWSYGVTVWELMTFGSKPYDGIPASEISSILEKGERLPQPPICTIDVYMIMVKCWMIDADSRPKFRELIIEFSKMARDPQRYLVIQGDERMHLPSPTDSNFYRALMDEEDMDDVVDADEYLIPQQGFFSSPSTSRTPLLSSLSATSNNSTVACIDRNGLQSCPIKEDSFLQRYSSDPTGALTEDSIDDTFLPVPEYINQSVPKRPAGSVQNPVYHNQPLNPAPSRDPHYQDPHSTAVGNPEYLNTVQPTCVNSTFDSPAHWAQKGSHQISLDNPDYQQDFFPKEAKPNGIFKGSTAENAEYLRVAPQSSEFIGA

IC50 [1] [nM]	SMILES	also measured
794	c1cncc(CNc2ncnc3ccc(-c4ccco4)cc23)c1	–
3550	COc1cccc(-c2ccc3ncnc(NCc4cccnc4)c3c2)c1	–
158	Cc1noc(C)c1-c1ccc2ncnc(NCc3cccs3)c2c1	–
1000	COc1cccc(-c2ccc3ncnc(NCc4cc(C)cs4)c3c2)c1	–
224	Cc1cccc(CNc2ncnc3ccc(-c4ccco4)cc23)c1	–
501	Cc1csc(CNc2ncnc3ccc(-c4c(C)noc4C)cc23)c1	–
447	c1cncc(CNc2ncnc3ccc(-c4ccc5c(c4)OCCO5)cc23)c1	–
250	c1coc(-c2ccc3ncnc(NCc4cccs4)c3c2)c1	–
178	Cc1csc(CNc2ncnc3ccc(-c4ccc5c(c4)OCO5)cc23)c1	–
178	Cc1noc(C)c1-c1ccc2ncnc(NCc3cccc(F)c3)c2c1	–
126	Fc1cccc(CNc2ncnc3ccc(-c4ccc5c(c4)OCO5)cc23)c1	–
1120	COc1cccc(-c2ccc3ncnc(NCc4cccc(C)c4)c3c2)c1	–
111	c1coc(-c2ccc3ncnc(NCc4ccoc4)c3c2)c1	–
708	COc1cccc(-c2ccc3ncnc(NCc4cccc(F)c4)c3c2)c1	–
501	Cc1csc(CNc2ncnc3ccc(-c4ccc5c(c4)OCCO5)cc23)c1	–
126	Cc1cccc(CNc2ncnc3ccc(-c4ccc5c(c4)OCO5)cc23)c1	–
63	c1nc(NCc2ccoc2)c2cc(-c3ccc4c(c3)OCO4)ccc2n1	–
141	Fc1cccc(CNc2ncnc3ccc(-c4ccco4)cc23)c1	–
631	Cc1cccc(CNc2ncnc3ccc(-c4ccc5c(c4)OCCO5)cc23)c1	–
100	c1cncc(CNc2ncnc3ccc(-c4ccc5c(c4)OCO5)cc23)c1	–
891	COc1cccc(-c2ccc3ncnc(NCc4cccs4)c3c2)c1	–
1000	COc1cccc(-c2ccc3ncnc(NCc4ccoc4)c3c2)c1	–

SMILES	IC50 [1] [nM]	also measured
c1csc(CNc2ncnc3ccc(-c4ccc5c(c4)OCO5)cc23)c1	63	Kd [2]: 230 nM; Kd [3]: 37 nM; Kd [4]: 470 nM; Kd [5]: 430 nM; Kd [6]: 680 nM; Kd [7]: 27 nM; Kd [8]: 50 nM
